± gives the uncertainty stated by the source.
Assay: xn = mol fraction of the nth substance listed

CCCCBr + CCCCO
viscosity [mPa·s], 101.33 kPa
Details | x2 = 0.1114 | x2 = 0.2168 | x2 = 0.3241 | x2 = 0.4255 | x2 = 0.5172 | x2 = 0.6158 | x2 = 0.7127 | x2 = 0.7911 | x2 = 0.8968
298.15 K | 0.63 ± 0.009 | 0.685 ± 0.009 | 0.759 ± 0.01 | 0.86 ± 0.011 | 0.983 ± 0.013 | 1.158 ± 0.014 | 1.394 ± 0.017 | 1.636 ± 0.02 | 2.046 ± 0.024
308.15 K | 0.554 ± 0.008 | 0.588 ± 0.008 | 0.638 ± 0.009 | 0.706 ± 0.009 | 0.793 ± 0.01 | 0.918 ± 0.012 | 1.086 ± 0.013 | 1.261 ± 0.015 | 1.581 ± 0.019
318.15 K | 0.495 ± 0.007 | 0.522 ± 0.008 | 0.561 ± 0.008 | 0.613 ± 0.008 | 0.679 ± 0.009 | 0.771 ± 0.01 | 0.899 ± 0.011 | 1.029 ± 0.013 | 1.264 ± 0.015

CCCCNCCCC + CCCCO
Details | viscosity [mPa·s]
298.15 K, 101.33 kPa, x1 = 0.0635 | 2.402
298.15 K, 101.33 kPa, x1 = 0.1073 | 2.317
298.15 K, 101.33 kPa, x1 = 0.1494 | 2.223
298.15 K, 101.33 kPa, x1 = 0.2108 | 2.071
298.15 K, 101.33 kPa, x1 = 0.2648 | 1.932
298.15 K, 101.33 kPa, x1 = 0.3259 | 1.78
298.15 K, 101.33 kPa, x1 = 0.3973 | 1.606
298.15 K, 101.33 kPa, x1 = 0.4697 | 1.447
298.15 K, 101.33 kPa, x1 = 0.5484 | 1.303
298.15 K, 101.33 kPa, x1 = 0.6286 | 1.172
298.15 K, 101.33 kPa, x1 = 0.7575 | 1.015
298.15 K, 101.33 kPa, x1 = 0.8182 | 0.962
298.15 K, 101.33 kPa, x1 = 0.8572 | 0.927
298.15 K, 101.33 kPa, x1 = 0.8972 | 0.888
298.15 K, 101.33 kPa, x1 = 0.923 | 0.883
303.15 K, 101 kPa, x1 = 0.01155 | 2.23 ± 0.015
303.15 K, 101 kPa, x1 = 0.01803 | 2.213 ± 0.015
303.15 K, 101 kPa, x1 = 0.02448 | 2.198 ± 0.015
303.15 K, 101 kPa, x1 = 0.03423 | 2.177 ± 0.014
303.15 K, 101 kPa, x1 = 0.04155 | 2.163 ± 0.014
303.15 K, 101 kPa, x1 = 0.04858 | 2.15 ± 0.014
303.15 K, 101 kPa, x1 = 0.05659 | 2.134 ± 0.014
303.15 K, 101 kPa, x1 = 0.06332 | 2.12 ± 0.014
303.15 K, 101 kPa, x1 = 0.1014 | 2.031 ± 0.014
303.15 K, 101.33 kPa, x1 = 0.0951 | 2.122 ± 0.025
303.15 K, 101.33 kPa, x1 = 0.1888 | 1.923 ± 0.023
303.15 K, 101.33 kPa, x1 = 0.2886 | 1.712 ± 0.02
303.15 K, 101.33 kPa, x1 = 0.3967 | 1.507 ± 0.018
303.15 K, 101.33 kPa, x1 = 0.4924 | 1.34 ± 0.016
303.15 K, 101.33 kPa, x1 = 0.5903 | 1.201 ± 0.015
303.15 K, 101.33 kPa, x1 = 0.6884 | 1.078 ± 0.013
303.15 K, 101.33 kPa, x1 = 0.7951 | 0.96 ± 0.012
303.15 K, 101.33 kPa, x1 = 0.8941 | 0.8638 ± 0.011
308.15 K, 101.33 kPa, x1 = 0.0635 | 1.828
308.15 K, 101.33 kPa, x1 = 0.1073 | 1.767
308.15 K, 101.33 kPa, x1 = 0.1494 | 1.698
308.15 K, 101.33 kPa, x1 = 0.2108 | 1.588
308.15 K, 101.33 kPa, x1 = 0.2648 | 1.485
308.15 K, 101.33 kPa, x1 = 0.3259 | 1.377
308.15 K, 101.33 kPa, x1 = 0.3973 | 1.255
308.15 K, 101.33 kPa, x1 = 0.4697 | 1.145
308.15 K, 101.33 kPa, x1 = 0.5484 | 1.042
308.15 K, 101.33 kPa, x1 = 0.6286 | 0.952
308.15 K, 101.33 kPa, x1 = 0.7575 | 0.841
308.15 K, 101.33 kPa, x1 = 0.8182 | 0.801
308.15 K, 101.33 kPa, x1 = 0.8572 | 0.776
308.15 K, 101.33 kPa, x1 = 0.8972 | 0.753
308.15 K, 101.33 kPa, x1 = 0.923 | 0.739
313.15 K, 101.33 kPa, x1 = 0.0951 | 1.68 ± 0.02
313.15 K, 101.33 kPa, x1 = 0.1888 | 1.532 ± 0.018
313.15 K, 101.33 kPa, x1 = 0.2886 | 1.38 ± 0.017
313.15 K, 101.33 kPa, x1 = 0.3967 | 1.225 ± 0.015
313.15 K, 101.33 kPa, x1 = 0.4924 | 1.106 ± 0.014
313.15 K, 101.33 kPa, x1 = 0.5903 | 0.9976 ± 0.013
313.15 K, 101.33 kPa, x1 = 0.6884 | 0.9063 ± 0.012
313.15 K, 101.33 kPa, x1 = 0.7951 | 0.8105 ± 0.01
313.15 K, 101.33 kPa, x1 = 0.8941 | 0.7369 ± 0.0097
318.15 K, 101.33 kPa, x1 = 0.0635 | 1.441
318.15 K, 101.33 kPa, x1 = 0.1073 | 1.395
318.15 K, 101.33 kPa, x1 = 0.1494 | 1.344
318.15 K, 101.33 kPa, x1 = 0.2108 | 1.263
318.15 K, 101.33 kPa, x1 = 0.2648 | 1.188
318.15 K, 101.33 kPa, x1 = 0.3259 | 1.108
318.15 K, 101.33 kPa, x1 = 0.3973 | 1.018
318.15 K, 101.33 kPa, x1 = 0.4697 | 0.938
318.15 K, 101.33 kPa, x1 = 0.5484 | 0.864
318.15 K, 101.33 kPa, x1 = 0.6286 | 0.798
318.15 K, 101.33 kPa, x1 = 0.7575 | 0.717
318.15 K, 101.33 kPa, x1 = 0.8182 | 0.687
318.15 K, 101.33 kPa, x1 = 0.8572 | 0.669
318.15 K, 101.33 kPa, x1 = 0.8972 | 0.65
318.15 K, 101.33 kPa, x1 = 0.923 | 0.642

CCOC(=O)C(=O)OCC + CCCCO
303.15 K, 101.33 kPa
Details | viscosity [mPa·s]
x1 = 0.1064 | 1.803 ± 0.011
x1 = 0.1924 | 1.613 ± 0.01
x1 = 0.2954 | 1.496 ± 0.009
x1 = 0.3832 | 1.438 ± 0.009
x1 = 0.5033 | 1.405 ± 0.009
x1 = 0.6097 | 1.405 ± 0.009
x1 = 0.6734 | 1.419 ± 0.009
x1 = 0.7804 | 1.461 ± 0.009
x1 = 0.9074 | 1.556 ± 0.01

CCCC(C)O (stereo not drawn) + CCCCOC(C)=O
viscosity [mPa·s], 100 kPa
Details | x2 = 0.0809 | x2 = 0.1601 | x2 = 0.2399 | x2 = 0.3501 | x2 = 0.44 | x2 = 0.56 | x2 = 0.65 | x2 = 0.7398 | x2 = 0.85 | x2 = 0.9399
293.15 K | 2.506 ± 0.3 | 1.64 ± 0.2 | 1.205 ± 0.14 | 0.917 ± 0.11 | 0.797 ± 0.096 | 0.724 ± 0.087 | 0.703 ± 0.085 | 0.685 ± 0.082 | 0.684 ± 0.082 | 0.7 ± 0.08
298.15 K | 2.253 ± 0.27 | 1.525 ± 0.18 | 1.121 ± 0.14 | 0.853 ± 0.1 | 0.744 ± 0.09 | 0.668 ± 0.08 | 0.656 ± 0.079 | 0.644 ± 0.078 | 0.644 ± 0.078 | 0.656 ± 0.079
303.15 K | 2.018 ± 0.24 | 1.419 ± 0.17 | 1.05 ± 0.13 | 0.805 ± 0.097 | 0.688 ± 0.083 | 0.62 ± 0.07 | 0.605 ± 0.073 | 0.6 ± 0.07 | 0.599 ± 0.072 | 0.618 ± 0.074
308.15 K | 1.688 ± 0.2 | 1.227 ± 0.15 | 0.926 ± 0.11 | 0.704 ± 0.085 | 0.616 ± 0.074 | 0.56 ± 0.07 | 0.546 ± 0.066 | 0.537 ± 0.065 | 0.548 ± 0.066 | 0.566 ± 0.068
313.15 K | 1.407 ± 0.17 | 1.016 ± 0.12 | 0.775 ± 0.093 | 0.619 ± 0.075 | 0.548 ± 0.066 | 0.504 ± 0.061 | 0.488 ± 0.059 | 0.48 ± 0.06 | 0.496 ± 0.06 | 0.52 ± 0.06
318.15 K | 1.139 ± 0.14 | 0.816 ± 0.098 | 0.614 ± 0.074 | 0.497 ± 0.06 | 0.455 ± 0.055 | 0.424 ± 0.051 | 0.416 ± 0.05 | 0.421 ± 0.051 | 0.448 ± 0.054 | 0.476 ± 0.057
323.15 K | 0.874 ± 0.11 | 0.6 ± 0.07 | 0.438 ± 0.053 | 0.365 ± 0.044 | 0.343 ± 0.041 | 0.338 ± 0.041 | 0.341 ± 0.041 | 0.358 ± 0.043 | 0.391 ± 0.047 | 0.432 ± 0.052
